Experimental findings from patent US20260001875A1, “AMINOPYRIMIDINYL DERIVATIVES FOR THE TREATMENT OF PARKINSON'S DISEASE” (UNIVERSITY OF DUNDEE, priority 2022, published 2026) are described below.

One assay concerns the target LRRK2 (Homo sapiens, UniProt Q5S007). As to the kind of experiment: NanoBRET-based ternary binding and cooperativity assay. Also noted: fused on or other part: NanoLuc luciferase fused to LRRK2 as the BRET donor tag. To be noted: permeabilized HEK293 cells, with VCB; read-out: IC50 LRRK2 engagement in the presence of VCB protein. On the procedure: The HEK293 cells were transfected with LRRK2-NanoLuc fusion vector (Promega, NV3401) following Promega's protocol and seeded into white 384-well plate (Corning3570) at a density of 6000 cells/well. The cells were then treated with 50 μg/mL of digitonin, 125 nM of LRRK2 tracer, testing compounds at decreasing concentrations (11 concentrations with 2-fold serial dilution starting from 10 μM) or testing compounds and VCB mix (11 concentrations with 2-fold serial dilution starting from 10 μM compound for the compound. The first 6 concentrations of VCB start from 32 μM with 2-fold dilution, the last 5 concentrations of VCB keep at 1 μM), and NanoBRET NanoGlo Substrate (Promega) at concentration recommended by the manufacturer's protocol. In the maximum signal control samples (DMSO control), DMSO was added instead of testing compounds. In the minimum signal control samples (no tracer control), DMSO and LRRK2 tracer dilution buffer were used to replace testing compounds and LRRK2 tracer separately. The filtered luminescence was measured within 10 min following addition of the substrate on a PHERAstar (BMG LABTECH) plate reader equipped with a 450-nm bandpass filter (donor) and a 600-nm long pass filter (acceptor). The fractional occupancy was calculated according to the equation: fractional occupancy=(mBRETtesting compound−mBRETno tracer control)/(mBRETDMSO control−mBRETno tracer control).

A further assay deals with Rab10 pThr73. As to the kind of experiment: Rab10 Thr73 dephosphorylation (immunoblot) in LRRK2^G2019S MEFs. Format: cell-based, mouse. To be noted: for inhibition at 1 µM: read-out: pRab10 inhibited in LRRK2^G2019S MEFs; for EC50: dose response, read-out: G2019S MEFs-pRab10-dephosphorylation EC50.
Assay [1] concerns the target T1, LRRK2^WT (Mus musculus, UniProt Q5S006).
T1 construct: endogenous in cells; host or cells: primary wild-type mouse embryonic fibroblasts (MEFs)
As to the kind of experiment: Western blot LRRK2 degradation in WT MEFs. Format: cell-based. To be noted: for DC50 / Dmax on WT MEFs / Dmax: dose response; for Dmax: read-out: Dmax on WT MEFs.

The test system of assay [2] is LRRK2^WT. As to the kind of experiment: Western blot LRRK2 degradation in WT MEFs. The class given is cell-based, mouse. Particulars: for LRRK2 degradation (in words): WT MEFs and LRRK2^G2019S MEFs.
The target in another assay is T2, LRRK2^G2019S (Mus musculus, UniProt Q5S006, G2019S).
T2 construct: endogenous in cells; host or cells: LRRK2[G2019S] mouse embryonic fibroblasts (MEFs)
Put plainly: Western blot LRRK2 degradation in LRRK2^G2019S MEFs. The class given is cell-based.

A further assay has as its system LRRK2 pSer935. Put plainly: LRRK2 Ser935 dephosphorylation (immunoblot) in WT MEFs. Particulars: for EC50: Mus musculus, dose response, read-out: WT MEFs pSer935 LRRK2-dephosphrylation EC50; for T1/2 WT-pSer935-LRRK2: WT MEFs. Format: cell-based, mouse. The protocol:
Western blot degradation assays for the LRRK2 protacs were performed with WT and PD-associated LRRK2 [G2019S] mouse embryonic fibroblasts (MEFs). The second-generation PROTACs were tested in parallel with the first generation PROTACs SD75, SD82, and SD100. The compounds were tested at 33 nM or […] concentrations for 4 hours or 24 hours, running two biological replicates per condition and achieving quantifications representative of both replicates. Analysis by quantitative immunoblotting was performed with readouts of the total LRRK2 (antibody recognizes epitope in C-terminus of protein), Rab10 pThr73 (physiological substrate) and LRRK2 pSer935 (biomarker phosphorylation site).
Primary MEFs were generated as described in a previous study (Wiggin et al., Mol. Cell Biol. 2002 April; 22(8):2871-81.). Briefly, the uterine horn was collected from adult female mice at day E12.5 and transferred to a 10 cm tissue culture dish containing cold PBS. Two forceps were used to tear the yolk sacs to isolate each embryo. Forceps were cleaned thoroughly with 70% ethanol between each embryo isolation. The embryos were culled, and a tissue piece was collected in a PCR tube for genotyping. The red tissue of the embryo, which grows to become the heart and liver, was removed. The remainder of the embryo was minced with a scalpel blade and incubated with 7.5 ml trypsin-EDTA solution for 10 minutes in a 37° C. tissue culture CO2 incubator. The dish was removed from the incubator and checked under a light microscope for single cells. 7.5 ml complete media was added to the trypsinised cells, and the cell suspension was transferred to a 15 ml Falcon tube, centrifuged at 1200 rpm for 5 minutes at room temperature. The trypsin was aspirated, the cell pellet was resuspended in 5 ml fresh complete media, and the cell suspension was plated in a 60 mm tissue culture dish and incubated in a 37° C., 5% CO2 tissue culture incubator. The MEFs at this stage were considered as passage 0 and were passaged and expanded for experimental use once the genotype was confirmed by allelic sequencing and immunoblotting. MEFs were cultured in Dulbecco's modified Eagle medium (DMEM) containing 10% (v/v) fetal bovine serum (FBS), 2 mM L-glutamine, 100 U/ml penicillin, and 100 μg/ml streptomycin supplemented with 1× non-essential amino acids and 1 mM sodium pyruvate.
Culturing and passaging of adherent cell lines were carried out using aseptic technique in CL1 or CL2 (for PBMC isolation) biological safety cabinets. All cells were incubated in a 37° C. incubator with 5% CO2. Cell lines were regularly tested for mycoplasma contamination. For western blot assay, the cells were seeded in 6-well plates. After treating with testing compounds at indicated concentrations and time period, the media was removed and the cells were washed with PBS and lysed in 100 μl ice-cold complete lysis buffer containing 50 mM Tris-HCl pH 7.4, 1 mM EGTA, 10 mM 2-glycerophosphate, 50 mM sodium fluoride, 5 mM sodium pyrophosphate, 270 mM sucrose, supplemented with 1 μg/ml microcystin-LR, 1 mM sodium orthovanadate, complete EDTA-free protease inhibitor cocktail (Roche) and 1% (v/v) Triton X-100. The cells were immediately placed on ice and were scraped and collected into 1.5 ml Eppendorf tubes. Cell lysates were incubated on ice for 10 minutes prior to centrifugation at 15,000 g at 4° C. for 15 minutes. The cell pellet was discarded, and supernatant was collected for analysis by quantitative immunoblotting. For long term storage, the supernatant was flash frozen and stored at −80° C. Protein concentrations of cell lysates were determined using the Bradford assay.
Cell lysates containing a quarter of a volume of 4× NuPAGE LDS sample buffer (NP0007) supplemented with 5% β-mercaptoethanol, were heated at 95° C. for 5 minutes. […]

The mark [3] stands for this setting: Mus musculus, 1 μM/4 h treatment.
The mark [4] stands for this setting: time course at 300 nM, LRRK2^G2019S MEFs.

Molecules are shown by their SMILES. Entries after “also recorded” stand apart in the source; their conditions may differ. Like-named read-outs stand apart in the source and are kept apart here.

T1 sequence (Q5S006 whole entry): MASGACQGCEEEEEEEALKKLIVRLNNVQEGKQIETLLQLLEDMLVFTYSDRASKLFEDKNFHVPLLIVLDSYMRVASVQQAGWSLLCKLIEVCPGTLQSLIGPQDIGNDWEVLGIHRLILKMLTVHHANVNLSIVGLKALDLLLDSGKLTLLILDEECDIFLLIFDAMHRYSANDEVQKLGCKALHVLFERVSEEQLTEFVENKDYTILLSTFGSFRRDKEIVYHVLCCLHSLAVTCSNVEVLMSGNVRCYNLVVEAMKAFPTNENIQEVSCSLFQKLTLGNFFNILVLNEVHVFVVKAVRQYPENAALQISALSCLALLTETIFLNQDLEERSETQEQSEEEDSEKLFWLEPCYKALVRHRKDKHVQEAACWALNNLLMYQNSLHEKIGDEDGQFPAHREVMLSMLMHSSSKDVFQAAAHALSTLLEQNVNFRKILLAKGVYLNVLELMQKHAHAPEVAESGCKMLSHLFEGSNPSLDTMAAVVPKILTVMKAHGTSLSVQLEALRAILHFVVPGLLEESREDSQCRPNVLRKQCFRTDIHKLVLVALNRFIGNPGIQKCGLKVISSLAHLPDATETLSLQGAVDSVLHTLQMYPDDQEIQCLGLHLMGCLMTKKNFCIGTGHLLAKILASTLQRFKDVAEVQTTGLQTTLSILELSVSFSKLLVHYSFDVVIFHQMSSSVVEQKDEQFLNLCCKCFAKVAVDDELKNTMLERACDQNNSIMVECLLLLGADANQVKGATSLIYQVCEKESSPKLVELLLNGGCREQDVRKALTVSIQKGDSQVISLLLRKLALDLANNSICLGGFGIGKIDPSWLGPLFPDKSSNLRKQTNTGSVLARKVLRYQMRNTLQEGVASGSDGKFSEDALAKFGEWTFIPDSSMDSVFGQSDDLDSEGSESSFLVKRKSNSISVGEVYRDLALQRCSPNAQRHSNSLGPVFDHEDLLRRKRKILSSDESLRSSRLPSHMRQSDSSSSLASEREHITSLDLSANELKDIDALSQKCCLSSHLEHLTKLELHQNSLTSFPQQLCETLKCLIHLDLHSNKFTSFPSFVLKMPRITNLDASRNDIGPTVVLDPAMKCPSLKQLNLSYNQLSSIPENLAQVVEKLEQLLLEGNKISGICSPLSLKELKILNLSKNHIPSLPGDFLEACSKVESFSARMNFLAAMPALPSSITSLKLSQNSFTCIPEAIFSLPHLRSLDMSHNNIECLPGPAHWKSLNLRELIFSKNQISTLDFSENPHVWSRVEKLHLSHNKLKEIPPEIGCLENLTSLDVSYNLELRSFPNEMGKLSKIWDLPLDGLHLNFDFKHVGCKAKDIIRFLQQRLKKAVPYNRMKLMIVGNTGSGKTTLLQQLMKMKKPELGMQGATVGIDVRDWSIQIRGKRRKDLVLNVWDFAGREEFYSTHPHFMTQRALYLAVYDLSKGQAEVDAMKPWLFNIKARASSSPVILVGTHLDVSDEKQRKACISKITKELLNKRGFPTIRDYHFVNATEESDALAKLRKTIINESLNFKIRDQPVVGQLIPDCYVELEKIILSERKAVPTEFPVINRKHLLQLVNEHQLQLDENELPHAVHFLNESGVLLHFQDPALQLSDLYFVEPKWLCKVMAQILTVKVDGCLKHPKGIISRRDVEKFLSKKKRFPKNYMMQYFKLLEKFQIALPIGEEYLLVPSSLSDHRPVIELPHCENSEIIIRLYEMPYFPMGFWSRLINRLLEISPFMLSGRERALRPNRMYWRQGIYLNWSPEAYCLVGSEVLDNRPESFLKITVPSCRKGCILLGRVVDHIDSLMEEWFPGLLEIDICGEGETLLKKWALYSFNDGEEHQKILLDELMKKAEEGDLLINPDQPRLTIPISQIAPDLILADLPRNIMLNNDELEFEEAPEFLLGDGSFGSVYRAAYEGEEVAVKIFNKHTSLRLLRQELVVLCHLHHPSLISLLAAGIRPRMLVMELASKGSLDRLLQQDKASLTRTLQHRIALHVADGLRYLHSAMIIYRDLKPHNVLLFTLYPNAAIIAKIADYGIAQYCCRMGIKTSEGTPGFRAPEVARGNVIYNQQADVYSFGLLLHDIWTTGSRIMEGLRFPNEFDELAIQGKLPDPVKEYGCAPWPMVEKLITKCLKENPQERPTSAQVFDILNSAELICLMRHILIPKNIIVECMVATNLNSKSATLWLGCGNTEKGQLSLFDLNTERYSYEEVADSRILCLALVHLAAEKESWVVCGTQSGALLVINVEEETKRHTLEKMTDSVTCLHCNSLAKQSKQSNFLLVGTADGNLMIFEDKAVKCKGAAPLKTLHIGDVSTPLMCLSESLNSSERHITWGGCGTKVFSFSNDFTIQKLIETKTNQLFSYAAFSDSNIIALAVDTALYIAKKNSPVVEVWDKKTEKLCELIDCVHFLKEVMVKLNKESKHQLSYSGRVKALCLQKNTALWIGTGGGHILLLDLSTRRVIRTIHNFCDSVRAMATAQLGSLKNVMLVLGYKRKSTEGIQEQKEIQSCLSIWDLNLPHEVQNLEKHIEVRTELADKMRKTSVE
T2 sequence (Q5S006 whole entry G2019S): as the sequence (Q5S006 whole entry) above, with G2019S counted along it
Chain of LRRK2 (Q5S007 whole entry, the tested form may be a part): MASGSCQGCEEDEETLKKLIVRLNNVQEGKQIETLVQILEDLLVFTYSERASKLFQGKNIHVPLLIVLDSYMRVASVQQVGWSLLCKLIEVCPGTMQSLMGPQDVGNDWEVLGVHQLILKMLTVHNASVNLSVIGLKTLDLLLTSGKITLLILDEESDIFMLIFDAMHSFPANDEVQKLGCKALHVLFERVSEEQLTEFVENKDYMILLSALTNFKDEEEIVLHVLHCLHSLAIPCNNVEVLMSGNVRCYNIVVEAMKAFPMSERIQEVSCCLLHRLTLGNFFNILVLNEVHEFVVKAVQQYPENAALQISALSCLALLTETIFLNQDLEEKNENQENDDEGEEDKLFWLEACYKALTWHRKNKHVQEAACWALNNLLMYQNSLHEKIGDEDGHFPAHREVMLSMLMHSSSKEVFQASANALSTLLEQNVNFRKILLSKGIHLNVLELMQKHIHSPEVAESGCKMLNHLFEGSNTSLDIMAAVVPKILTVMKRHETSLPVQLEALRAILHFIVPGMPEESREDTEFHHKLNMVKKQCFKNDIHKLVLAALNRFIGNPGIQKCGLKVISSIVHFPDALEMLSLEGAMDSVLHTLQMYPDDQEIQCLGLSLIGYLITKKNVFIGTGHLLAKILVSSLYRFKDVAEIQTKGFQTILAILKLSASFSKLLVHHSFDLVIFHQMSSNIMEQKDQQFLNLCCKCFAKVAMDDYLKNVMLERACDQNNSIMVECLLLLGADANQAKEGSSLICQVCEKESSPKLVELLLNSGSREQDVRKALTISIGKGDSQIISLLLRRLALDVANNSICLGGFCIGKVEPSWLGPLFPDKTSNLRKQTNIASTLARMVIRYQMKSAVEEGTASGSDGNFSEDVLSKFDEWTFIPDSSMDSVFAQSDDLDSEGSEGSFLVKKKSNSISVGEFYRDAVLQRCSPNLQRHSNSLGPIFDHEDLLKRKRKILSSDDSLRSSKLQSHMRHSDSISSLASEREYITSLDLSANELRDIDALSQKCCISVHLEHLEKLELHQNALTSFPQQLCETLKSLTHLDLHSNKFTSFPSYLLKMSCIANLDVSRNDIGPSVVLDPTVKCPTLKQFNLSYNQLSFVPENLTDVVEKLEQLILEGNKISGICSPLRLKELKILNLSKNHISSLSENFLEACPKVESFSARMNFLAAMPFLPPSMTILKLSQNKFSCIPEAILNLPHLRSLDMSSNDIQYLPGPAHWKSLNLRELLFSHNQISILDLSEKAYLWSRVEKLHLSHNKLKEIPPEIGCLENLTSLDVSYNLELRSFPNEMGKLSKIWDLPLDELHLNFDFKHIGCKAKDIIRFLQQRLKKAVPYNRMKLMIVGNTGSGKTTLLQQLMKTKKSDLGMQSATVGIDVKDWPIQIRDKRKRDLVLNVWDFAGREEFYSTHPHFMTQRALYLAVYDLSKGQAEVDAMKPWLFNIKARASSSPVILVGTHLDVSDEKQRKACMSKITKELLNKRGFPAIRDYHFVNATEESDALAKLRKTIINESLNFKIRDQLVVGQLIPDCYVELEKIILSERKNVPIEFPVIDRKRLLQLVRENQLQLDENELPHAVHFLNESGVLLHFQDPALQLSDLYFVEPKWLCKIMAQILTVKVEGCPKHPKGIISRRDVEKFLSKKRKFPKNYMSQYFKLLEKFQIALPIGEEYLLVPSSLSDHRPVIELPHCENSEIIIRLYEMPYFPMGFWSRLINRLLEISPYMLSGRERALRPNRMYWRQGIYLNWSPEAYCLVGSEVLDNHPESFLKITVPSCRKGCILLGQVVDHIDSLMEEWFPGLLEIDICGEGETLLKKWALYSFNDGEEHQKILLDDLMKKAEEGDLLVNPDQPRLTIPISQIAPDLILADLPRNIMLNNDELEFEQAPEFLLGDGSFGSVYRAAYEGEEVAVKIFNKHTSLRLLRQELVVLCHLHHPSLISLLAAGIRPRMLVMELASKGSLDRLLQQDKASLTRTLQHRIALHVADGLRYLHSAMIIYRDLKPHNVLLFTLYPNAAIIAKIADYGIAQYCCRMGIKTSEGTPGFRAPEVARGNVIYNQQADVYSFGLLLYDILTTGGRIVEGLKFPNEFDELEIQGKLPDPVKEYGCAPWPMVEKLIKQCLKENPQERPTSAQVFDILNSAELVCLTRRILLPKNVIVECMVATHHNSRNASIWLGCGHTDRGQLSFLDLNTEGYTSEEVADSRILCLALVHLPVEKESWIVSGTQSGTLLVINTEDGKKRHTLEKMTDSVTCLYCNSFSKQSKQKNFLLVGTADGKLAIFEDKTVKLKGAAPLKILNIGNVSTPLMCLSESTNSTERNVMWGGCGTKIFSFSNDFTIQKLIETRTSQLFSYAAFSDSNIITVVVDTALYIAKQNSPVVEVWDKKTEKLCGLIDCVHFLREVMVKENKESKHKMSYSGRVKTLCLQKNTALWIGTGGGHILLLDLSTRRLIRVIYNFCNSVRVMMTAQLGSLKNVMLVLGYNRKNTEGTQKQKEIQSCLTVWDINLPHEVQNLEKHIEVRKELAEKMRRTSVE

Regarding `CNc1nc(Nc2ccc(C(=O)N3CCN(C[C@H]4CC[C@@H](CSC(C)(C)[C@H](NC(=O)C5(F)CC5)C(=O)N5C[C@H](O)CC5C(=O)NCc5ccc(-c6scnc6C)cc5)CC4)CC3)cc2OC)ncc1Cl` (stereo partly shown) [XL01134], at LRRK2, the IC50 was found to be 790 nM. In the assay with Rab10 pThr73 (setting [3]), the inhibition at 1 µM lay within 20 to 100%. Further, the inhibition at 1 µM in the assay on Rab10 pThr73 (Mus musculus, 1 μM/24 h treatment) was in the range of 10 to 100%. Also, the EC50 in the assay with Rab10 pThr73 (Mus musculus, 4 h treatment) is 12 nM. In the assay on Rab10 pThr73 (Mus musculus, time course at 300 nM, LRRK2^G2019S MEFs), this compound registered a Dmax at 0.3 µM of 87%. The “T1/2 of Rab10 dephosphorylation (G2019S)” value with Rab10 pThr73 (setting [4]) is 0.3 h. At LRRK2^WT [1] (4 h treatment), the DC50 was determined as 32 nM, the “Dmax on WT MEFs” value came to 58% and the Dmax came out at 59%. Moreover, on LRRK2^WT [1] (time course at 300 nM, WT MEFs), the “T1/2 of LRRK2^WT degradation” value is 2.7 h. In the assay on LRRK2^WT [2], the “LRRK2 degradation (in words)” value is recorded as “hook effect”. Further, at LRRK2^G2019S (time course at 300 nM), the Dmax at 0.3 µM is 82% and the “T1/2 of LRRK2^G2019S degradation” value is listed as 1.4 h. Besides, the EC50 in the assay on LRRK2 pSer935 (4 h treatment) is 35 nM. In addition, in the assay on LRRK2 pSer935 (time course at 300 nM), the “T1/2 WT-pSer935-LRRK2” value is listed as 0.7 h.
`CNc1nc(Nc2ccc(C(=O)N3CCN(CCOCCOCCSC(C)(C)[C@H](NC(=O)C4(F)CC4)C(=O)N4C[C@H](O)C[C@H]4C(=O)NCc4ccc(-c5scnc5C)cc4)CC3)cc2OC)ncc1Cl` [SD75, (2S,4R)-1-((R)-3-((2-(2-(2-(4-(4-((5-chloro-4-(methylamino)pyrimidin-2-yl)amino)-3-methoxybenzoyl)piperazin-1-yl)ethoxy)ethoxy)ethyl)thio)-2-(1-fluorocyclopropane-1-carboxamido)-3-methylbutanoyl)-4-hydroxy-N-(4-(4-methylthiazol-5-yl)benzyl)pyrrolidine-2-carboxamide]: the IC50 at LRRK2 was determined as 1400 nM. For the same compound, in the assay with Rab10 pThr73 (setting [3]), the inhibition at 1 µM was 30 to 95%. The Dmax at 1 µM in the assay on Rab10 pThr73 (Mus musculus, time course at 1000 nM, LRRK2^G2019S MEFs) came out at 74%. In addition, the EC50 was determined as 379 nM with Rab10 pThr73 (24 h treatment) and 745 nM in the assay with LRRK2 pSer935 (24 h treatment). Moreover, the “T1/2 of Rab10 dephosphorylation (G2019S)” value in the assay with Rab10 pThr73 (time course at 1000 nM, LRRK2^G2019S MEFs) is 0.7 h. Also, the “Dmax on WT MEFs” value at LRRK2^WT [1] (24 h treatment) is reported as 50%. For the same compound, the “T1/2 of LRRK2^WT degradation” value on LRRK2^WT [1] (time course at 1000 nM, WT MEFs) worked out at 5.1 h. For the same compound, the “LRRK2 degradation (in words)” value in the assay on LRRK2^WT [2] is reported as “moderate LRRK2 degradation; also recorded: partial LRRK2 degradation”. The “T1/2 of LRRK2^G2019S degradation” value at LRRK2^G2019S (time course at 1000 nM) was 1.1 h. Further, in the assay with LRRK2 pSer935 (24 h), the “Selectivity Index (pSer935-LRRK2 dephosphorylation, WT vs G2019S MEFs)” value was determined as 2.7. Also, in the assay on LRRK2 pSer935 (time course at 1000 nM), the “T1/2 WT-pSer935-LRRK2” value is listed as 3.6 h.
Turning to `CNc1nc(Nc2ccc(C(=O)N3CCN(C[C@H]4CC[C@H](CSC(C)(C)[C@H](NC(=O)C5(F)CC5)C(=O)N5C[C@H](O)CC5C(=O)NCc5ccc(-c6scnc6C)cc5)CC4)CC3)cc2OC)ncc1Cl` (stereo partly drawn) [XL01126, (2S,4R)-1-((R)-3-((((1R,4R)-4-((4-(4-((5-chloro-4-(methylamino)pyrimidin-2-yl)amino)-3-methoxybenzoyl)piperazin-1-yl)methyl)cyclohexyl)methyl)thio)-2-(1-fluorocyclopropane-1-carboxamido)-3-methylbutanoyl)-4-hydroxy-N-(4-(4-methylthiazol-5-yl)benzyl)pyrrolidine-2-carboxamide], at LRRK2, the IC50 came to 350 nM. The EC50 with Rab10 pThr73 (Mus musculus, 4 h treatment) is 15 nM. Further, the “T1/2 of Rab10 dephosphorylation (G2019S)” value with Rab10 pThr73 (setting [4]) amounted to 0.3 h. For the same compound, at LRRK2^WT [1] (4 h treatment), the DC50 stood at 32 nM, the “Dmax on WT MEFs” value was 80-90% and the Dmax was 82%. On LRRK2^WT [1] (time course at 300 nM, WT MEFs), the Dmax at 0.3 µM is 82% and the “T1/2 of LRRK2^WT degradation” value is recorded as 1.2 h. Also, the “LRRK2 degradation (in words)” value with LRRK2^WT [2] was “almost complete LRRK2 degradation”. Besides, the “mechanism of induced LRRK2 degradation (in words)” value with LRRK2^WT [2] (pretreatment with VH101, MLN4924, MG132, WT and LRRK2^G2019S MEFs) is “dependent on the proteasome pathway”. In addition, the “T1/2 of LRRK2^G2019S degradation” value on LRRK2^G2019S (time course at 300 nM) turned out to be 0.6 h. Further, the EC50 in the assay on LRRK2 pSer935 (4 h treatment) came to 18 nM. Also, the “T1/2 WT-pSer935-LRRK2” value with LRRK2 pSer935 (time course at 300 nM) was determined as 0.6 h.
